{"source": "patent US20220388919A1", "about": "“UREA-BASED BLEND COMPOSITION AND METHOD FOR THE MANUFACTURE THEREOF” (Yara International ASA, priority 2019, published 2022)", "experiment": "nBTPT recovered after storage in bags (HPLC, CEN 15688-2007)", "assay_type": "physicochemical", "details": "bagged conditions without the presence of a head space (exclusion of moisture and atmospheric gasses)", "experimental": "For lab scale experiments, 1.2 kg of solid UAS fertilizer material was added to a lab scale drum. In a next step, the nBTPT/stabilizer material was slowly added. A residence time of 10 minutes was applied, and the rotating speed of the drum was consequently the same in each experiment. In case a moisture-repellent coating was added, a nebulizer was used and depending on the order of addition, the moisture-repellent coating was added before or after addition of the nBTPT material. Before use, the moisture-repellent coating was preheated to 80° C. Larger scale experiments with amounts up to 40 kg of fertilizer material were performed in a concrete mixer.\nOptionally, a zinc sulphate, anhydrous zinc sulphate or monohydrate zinc sulphate, was coated on the particles (0.46 weight %). […] Product samples were taken at different times from a bag and the amount of nBTPT still present was measured by HPLC according to the procedure CEN 15688-2007, the results are presented in FIG. 1. […]\nUrea particles containing 46 weight % of nitrogen was coated with 0.046 weight % of nBTPT, as urease inhibitor, and an inorganic stabilizer, magnesium oxide (0.023 weight %). […] Product samples were taken at different times and the amount of nBTPT still present was measured by HPLC according to the procedure CEN 15688-2007, the results are presented in FIG. 5. […]", "data": [{"smiles": "CCCCNP(N)(N)=S", "note": "[nBTPT, N-(n-butyl) thiophosphoric triamide]", "values": [{"measurement": "stability of the urease inhibitor", "result": "further increased"}]}]}
